Earlier results, collected in patent US20120040397A1, “Photo-Crosslinked Nucleic Acid Hydrogels” (priority 2008, published 2012).

Columns and labels:
[1] = in vivo
PPAR-gamma = target: T1, PPAR-gamma (Homo sapiens, UniProt P37231); conditions: context-specific, depends on cell type
T1 sequence (P37231 1-505): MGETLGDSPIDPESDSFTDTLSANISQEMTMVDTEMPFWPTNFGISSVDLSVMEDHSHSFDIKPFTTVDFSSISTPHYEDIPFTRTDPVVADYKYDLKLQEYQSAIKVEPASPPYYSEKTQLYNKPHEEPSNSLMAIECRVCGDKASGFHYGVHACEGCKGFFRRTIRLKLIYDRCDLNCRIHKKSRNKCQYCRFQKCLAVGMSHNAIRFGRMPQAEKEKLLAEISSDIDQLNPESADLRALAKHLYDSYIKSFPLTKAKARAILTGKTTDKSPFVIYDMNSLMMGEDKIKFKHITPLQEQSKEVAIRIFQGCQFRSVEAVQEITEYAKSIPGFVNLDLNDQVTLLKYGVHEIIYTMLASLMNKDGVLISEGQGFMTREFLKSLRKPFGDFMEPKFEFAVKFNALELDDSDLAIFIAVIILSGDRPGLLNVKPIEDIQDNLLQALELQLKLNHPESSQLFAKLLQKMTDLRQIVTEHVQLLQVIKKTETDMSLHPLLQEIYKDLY

O=C1NC(=O)C(Cc2ccc3cc(OCc4ccccc4F)ccc3c2)S1 (stereo not drawn) [netoglitazone, 5-[{6-(2-fluorobenzyl)oxy-2-naphthyl}methyl]-2,4-thiazolidinedione]
efficacy in lowering plasma glucose, insulin, and triglyceride levels versus pioglitazone and troglitazone [1]: more efficacious | potency relative to rosiglitazone [1]: about three-fold | PPAR-gamma modulation (PPAR-gamma): full agonist of PPAR-gamma and as a partial agonist or antagonist in others
